Source: ChEMBL document CHEMBL1921683, “Radiosynthesis of three [11C]ureido-substituted benzenesulfonamides as PET probes for carbonic anhydrase IX in tumors” (Bioorg Med Chem Lett, 2011)

Assay: Chemical stability of the compound assessed as decomposition of the compound
Type: physicochemical

**Q.** Which Stability does the source give for N#Cc1ccccc1N[11C](=O)Nc1ccc(S(N)(=O)=O)cc1 here?
**A.** Unstable
